Source: the supplement of paper PMC10307832

How the values were obtained:
Test in all cases: relative viability (nuclei count vs DMSO), 5 days (fraction); higher = more cells survive
Vismodegib + Pictilisib = compound: CS(=O)(=O)c1ccc(C(=O)Nc2ccc(Cl)c(-c3ccccn3)c2)c(Cl)c1 [Vismodegib] + CS(=O)(=O)N1CCN(Cc2cc3nc(-c4cccc5[nH]ncc45)nc(N4CCOCC4)c3s2)CC1 [Pictilisib] (partner 1 µM)
How it was run: (§1)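 Five library-drug doses in √10 steps were combined with a fixed anchor-drug dose, or a single drug was given alone, by pin tool to lung cancer cell lines in 1536-well plates the day after seeding. Nuclei were stained and counted after 5 days. Relative viability is the nuclei count in treated wells over that in vehicle wells, taken as the median of duplicate plates.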

Vismodegib + Dasatinib = compound: CS(=O)(=O)c1ccc(C(=O)Nc2ccc(Cl)c(-c3ccccn3)c2)c(Cl)c1 [Vismodegib] + Cc1nc(Nc2ncc(C(=O)Nc3c(C)cccc3Cl)s2)cc(N2CCN(CCO)CC2)n1 [Dasatinib] (partner 0.075 µM)
How it was run: as §1

Vismodegib + AZD7762 = compound: CS(=O)(=O)c1ccc(C(=O)Nc2ccc(Cl)c(-c3ccccn3)c2)c(Cl)c1 [Vismodegib] + NC(=O)Nc1cc(-c2cccc(F)c2)sc1C(=O)N[C@H]1CCCNC1 [AZD7762] (partner 0.2 µM)
How it was run: as §1

VE-821 + Olaparib = compound: CS(=O)(=O)c1ccc(-c2cnc(N)c(C(=O)Nc3ccccc3)n2)cc1 [VE-821] + O=C(c1cc(Cc2n[nH]c(=O)c3ccccc23)ccc1F)N1CCN(C(=O)C2CC2)CC1 [Olaparib] (partner 8 µM)
How it was run: as §1

Cell Line	relative viability (Vismodegib + Pictilisib; first compound 0.08 µM)	relative viability (Vismodegib + Pictilisib; first compound 0.253 µM)	relative viability (Vismodegib + Pictilisib; first compound 0.8 µM)	relative viability (Vismodegib + Pictilisib; first compound 2.53 µM)	relative viability (Vismodegib + Pictilisib; first compound 8 µM)	relative viability (Vismodegib + Dasatinib; first compound 0.08 µM)	relative viability (Vismodegib + Dasatinib; first compound 0.253 µM)	relative viability (Vismodegib + Dasatinib; first compound 0.8 µM)	relative viability (Vismodegib + Dasatinib; first compound 2.53 µM)	relative viability (Vismodegib + Dasatinib; first compound 8 µM)	relative viability (Vismodegib + AZD7762; first compound 0.08 µM)	relative viability (Vismodegib + AZD7762; first compound 0.253 µM)	relative viability (Vismodegib + AZD7762; first compound 0.8 µM)	relative viability (Vismodegib + AZD7762; first compound 8 µM)	relative viability (VE-821 + Olaparib; first compound 0.08 µM)	relative viability (VE-821 + Olaparib; first compound 0.253 µM)	relative viability (VE-821 + Olaparib; first compound 0.8 µM)	relative viability (VE-821 + Olaparib; first compound 2.53 µM)	relative viability (VE-821 + Olaparib; first compound 8 µM)	relative viability (Vismodegib + AZD7762; first compound 2.53 µM)
NCI-H1944	0.354	0.349	0.308	0.327	0.345	0.228	0.213	0.201	0.242	0.204	0.492	0.557	0.408	0.505	0.434	0.417	0.356	0.366	0.225	
NCI-H1975	0.294	0.311	0.264	0.304	0.307	0.347	0.338	0.371	0.267	0.348	0.689	0.649	0.642	0.631	0.883	0.715	0.672	0.57	0.334	0.729
NCI-H1993	0.875	0.947	0.771	0.792	0.822	0.499	0.763	0.562	0.565	0.554	0.751	0.912	0.84	0.712	1.21	0.943	1.03	1.01	0.942	0.768
NCI-H2085	0.418	0.447	0.377	0.444	0.417	0.26	0.244	0.22	0.217	0.213	0.972	0.972	1.11	0.914	0.774	0.747	0.844		0.694	0.997
